Entries after “also recorded” stand apart in the source; their conditions may differ.

In assay [1] the test system is cultured urothelial cells. Nature of the assay: Click-iT EdU assay of newly synthesized DNA. In kind it is cell-based. The note with it: ET-1 10 nM (25 ng/ml) vs control. From the text: Click-iT EdU assay (Invitrogen) was used to detect and quantify newly synthesized DNA. […] In Click-iT assay, EdU can be detected by green fluorescent dye and nuclei can be detected by blue fluorescent dye. Using fluorescent microplate reader (Synergy2, BioTek) both green and blue fluorescent signal were detected and quantified as shown in the bar graph of FIG. 3).

Assay [2] concerns rabbit primary urothelial cells. Conditions: ET-1 at 20 μM.
Description: Briefly, explanted epithelial cells propagated from fresh biopsy specimens are grown in DMEM-F12 with 10% heat-inactivated fetal bovine serum, 1% antibiotic/antimycotic, 1% L-glutamine, 1.0 unit/ml insulin (all from Sigma), and 5 μg/ml human epidermal growth factor at 37° C. in a humidified atmosphere of 5% CO2 and 95% air. […] Cell proliferation is assessed also by ^3H-thymidine incorporation and by cell counting using a haemocytometer. ET-1 samples are diluted at varying concentrations in serum-free MEM (containing only glutamine and antibiotics) and applied to cells. Control cultures receive only the vehicle. Cells are fed with serum-free medium for the proliferation assay.
Cultures are exposed to 1 μCi per well ^3H-thymidine (1 Ci=37 GiBg) for 4 hrs and trypsinized, sedimented by brief centrifugation (3,000 rpm for 10 min) and the cell pellets are washed with a buffer containing cold thymidine and the radioactivity determined using a scintillation counter. The ^3H-thymidine incorporation is expressed as a mean decrease in cpm of >2 SD from the mean of control cells for each plate. […] After developing the autoradiographs in D-19 (15° C.) and fixation, culture plates are stained with H &E. Cultures are examined under a light microscope and the number of cells showing silver grains in the nuclei from 10 selected fields on the culture plate are counted. […]
Assay [3] relates to human primary urothelial cells. Description: growth of cultured human primary urothelial cells (proliferation assay). Conditions: 20 μM ET-1. It is filed as cell-based. From the text:
Control cultures receive only the vehicle.

Turning to `CC[C@H](C)[C@H](NC(=O)[C@H](CC(=O)O)NC(=O)[C@H](CC(C)C)NC(=O)[C@H](Cc1c[nH]cn1)NC(=O)[C@@H]1CSSC[C@H](N)C(=O)N[C@@H](CO)C(=O)N[C@H]2CSSC[C@H](NC(=O)[C@H](CCC(=O)O)NC(=O)[C@H](CCCCN)NC(=O)[C@H](CC(=O)O)NC(=O)[C@H](CCSC)NC(=O)[C@H](CC(C)C)NC(=O)[C@H](CO)NC(=O)[C@H](CO)NC2=O)C(=O)N[C@@H](C(C)C)C(=O)N[C@@H](Cc2ccc(O)cc2)C(=O)N[C@@H](Cc2ccccc2)C(=O)N1)C(=O)N[C@H](C(=O)N[C@@H](Cc1c[nH]c2ccccc12)C(=O)O)[C@@H](C)CC` [ET-1, Endothelin-1], the “EdU staining (newly synthesized DNA) in cultured urothelial cells” value in assay [1] was “significant decrease”. For the same compound, the “inhibition of growth of rabbit primary urothelial cells” value in assay [2] is on record as 30-40%. Besides, the “effect on cell growth of cultured human urothelial cells” value in assay [3] is reported as “inhibited; also recorded: inhibition”.

For the origin of these results see patent publication US8563261B2, “Method of diagnosing and treating interstitial cystitis” (The Trustees of the University of Pennsylvania, priority 2009, dated 2013).
